Read-outs that look alike come from different tables or passages of the source.

The target of one test is T1, FLT3 (Homo sapiens, UniProt P36888).
T1 construct: purchased Invitrogen PV3182
T1 sequence (P36888 564-993 limits assumed): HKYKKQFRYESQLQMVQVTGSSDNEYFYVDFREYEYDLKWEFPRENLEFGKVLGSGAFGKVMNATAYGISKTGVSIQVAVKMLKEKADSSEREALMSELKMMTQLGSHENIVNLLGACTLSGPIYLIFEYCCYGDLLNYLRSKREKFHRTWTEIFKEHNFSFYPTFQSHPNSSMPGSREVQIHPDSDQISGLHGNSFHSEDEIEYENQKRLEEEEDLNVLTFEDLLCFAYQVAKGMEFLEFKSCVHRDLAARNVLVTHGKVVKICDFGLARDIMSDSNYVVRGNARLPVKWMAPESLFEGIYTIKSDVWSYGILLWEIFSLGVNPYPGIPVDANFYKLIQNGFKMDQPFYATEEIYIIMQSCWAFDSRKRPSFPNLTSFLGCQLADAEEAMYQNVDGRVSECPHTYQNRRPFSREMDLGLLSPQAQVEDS
As to the kind of experiment: Cell-free kinase assay, single dose (Reaction Biology, ADP-Glo). The format is biochemical. Particulars: inhibitor 500 nM; 100 μM ATP; average of duplicate. Here is the method: Cell-free kinase activity assays were performed at Reaction Biology Corporation. […] DMSO was used as control. […] Experiments were performed in duplicates. The concentrations of kinases and substrates used in the assays are indicated on Table S1. Kinase activity was quantified using the ADP-Glo™ Kinase Assay System (Promega, Madison, WI) following the manufacturer's recommendations.
A general note: ADP-Glo first removes unused ATP, then detects ADP through luciferase.

Another test addresses T2, Src (Homo sapiens, UniProt P12931).
T2 construct: purchased Invitrogen PR4336E
The test is described as follows: Cell-free kinase assay (Reaction Biology, ADP-Glo). Particulars: inhibitor 500 nM; 100 μM ATP; average of duplicate. Format: biochemical. On the procedure: Cell-free kinase activity assays were performed at Reaction Biology Corporation. Briefly, kinases were incubated with substrates, 100 μM ATP and a 3-fold serial dilution of compounds starting at 1 μM. DMSO was used as control. […] Experiments were performed in duplicates. The concentrations of kinases and substrates used in the assays are indicated on Table S1. Kinase activity was quantified using the ADP-Glo™ Kinase Assay System (Promega, Madison, WI) following the manufacturer's recommendations.

Test [1] relates to MOLM-14 (ITD, D835Y) cells. The test is described as follows: Antiproliferative activity (CellTitre-Blue, 72 h). Format: cell-based, human. As to conditions: 72 h incubation, triplicates, read-out: IC50 (mean ±SD, nM) MOLM-14 (ITD, D835Y). Here is the method: (§1) Cells were seeded into 96-well tissue culture-treated plates at 2.0 × 10^4 cells/mL for up to 24 h. DMSO stock solutions of compounds were serially diluted first in DMSO and subsequently into RPMI before being added to the cell cultures in triplicates, with 10 μM being the highest tested concentration. The plates were incubated for 72 h as above. The CellTitre-Blue assay (Promega, Madison WI) was then added to the cultures and incubated a further 4 h before the fluorescence measured following the manufacturers recommendations. The fluorescence data from compounds were normalized to that DMSO and the resulting data fitted to a non-linear regression equation to obtain IC50 using GraphPad Prism 5.0 Software (La Jolla, CA, USA).

Test [2] concerns MOLM-14 (ITD, F691 L) cells. As to the kind of experiment: Antiproliferative activity (CellTitre-Blue, 72 h). The format is cell-based, human. On the procedure: as §1
The test system of a further test is MOLM-14 cells. The test is described as follows: Antiproliferative activity (CellTitre-Blue, 72 h). The format is cell-based, human. Particulars: 72 h incubation, triplicates, read-out: IC50 (mean ±SD, nM) MOLM-14. On the procedure:
as §1

The next test has as its system MV4–11 cells. As to the kind of experiment: Antiproliferative activity (CellTitre-Blue, 72 h). The format is cell-based, human. As to conditions: for IC50: 72 h incubation, triplicates, read-out: IC50 (mean ±SD, nM) MV4–11. Here is the method: as §1
The mark [3] stands for this setting: Homo sapiens, MOLM-14, 72 h, 72 h incubation, triplicates, read-out: IC50 (mean ±SD, nM) MOLM-14 (ITD, F691 L).

T2 sequence (P12931 whole entry): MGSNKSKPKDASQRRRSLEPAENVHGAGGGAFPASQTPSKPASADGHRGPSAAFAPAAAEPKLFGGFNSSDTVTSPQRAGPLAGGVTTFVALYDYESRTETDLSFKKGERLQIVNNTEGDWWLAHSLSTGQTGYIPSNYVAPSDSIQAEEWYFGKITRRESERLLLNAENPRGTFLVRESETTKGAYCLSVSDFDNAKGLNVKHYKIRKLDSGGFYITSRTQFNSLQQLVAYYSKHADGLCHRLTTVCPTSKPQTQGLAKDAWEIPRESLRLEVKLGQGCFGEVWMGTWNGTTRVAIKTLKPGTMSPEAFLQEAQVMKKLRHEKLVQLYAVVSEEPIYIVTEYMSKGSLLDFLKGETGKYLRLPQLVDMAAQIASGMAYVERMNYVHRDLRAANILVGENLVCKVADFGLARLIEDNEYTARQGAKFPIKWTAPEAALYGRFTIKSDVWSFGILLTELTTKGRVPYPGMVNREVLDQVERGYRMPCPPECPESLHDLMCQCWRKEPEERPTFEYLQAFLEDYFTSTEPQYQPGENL

One may read the inhibition as how much of the control response was suppressed. A higher inhibition goes with a strong effect. With `Cc1cnc(C(=O)Nc2ccc(CN3CCN(C)CC3)c(C(F)(F)F)c2)cc1C#Cc1c(N)ncc2ccc(Cl)cc12` [Compound 10], the results for the inhibition at 0.5 µM against FLT3 and against Src were 75% and 93%, respectively.

For the compound `Cc1ccc(C(=O)Nc2ccc(CN3CCN(C)CC3)c(C(F)(F)F)c2)cc1C#Cc1cnc(N)c2ncccc12` [Compound 19], the figures for the inhibition at 0.5 µM against FLT3 and at Src were 99% and 98%, respectively.

Take `Cc1ncc(C(=O)Nc2ccc(CN3CCN(C)CC3)c(C(F)(F)F)c2)cc1C#Cc1cnc(N)c2ccccc12` [Compound 16]: the inhibition at 0.5 µM was 98% at FLT3 and 100% at Src.

Consider `Cc1ccc(C(=O)Nc2ccc(CN3CCN(C)CC3)c(C(F)(F)F)c2)cc1C#Cc1nc(Br)cnc1N` [Compound 3], for which the inhibition at 0.5 µM was determined as 81% at FLT3 and 99% on Src.

What is called IC50 is the concentration that inhibits the measured activity by half. With `Cc1ccc2cnc(N)c(C#Cc3cc(C(=O)Nc4ccc(CN5CCN(C)CC5)c(C(F)(F)F)c4)cnc3C)c2c1` [Compound 13], the IC50 came out at 4.7 ± 0.03 nM in test [1] (Homo sapiens, MOLM-14, 72 h); 1.1 ± 0.04 nM in test [2] (setting [3]); 1.4 ± 0.03 nM in the test on MOLM-14 cells (Homo sapiens, MOLM-14); 0.4 ± 0.006 nM in the test on MV4–11 cells (Homo sapiens, MV4-11, 72 h). The inhibition at 0.5 µM on FLT3 stood at 100%; at Src it was 98%.

On to `Cc1ccc2cnc(N)c(C#Cc3cc(C(=O)Nc4ccc(CN5CCN(C)CC5)c(C(F)(F)F)c4)ccc3C)c2c1` [Compound 12], for which the inhibition at 0.5 µM was 98% on FLT3 and 100% at Src.

Consider `Cc1ncc(C(=O)Nc2ccc(CN3CCN(C)CC3)c(C(F)(F)F)c2)cc1C#Cc1cnc(NC2CC2)c2ncccc12` [Compound 21], for which the inhibition at 0.5 µM against FLT3 was determined as 80%; at Src it was 20%.

Consider `CO[C@@H]1[C@H](N(C)C(=O)c2ccccc2)C[C@H]2O[C@]1(C)n1c3ccccc3c3c4c(c5c6ccccc6n2c5c31)C(=O)NC4` [Midostaurin, reference compound], for which the half-inhibitory concentration (IC50) in the test with MOLM-14 cells (Homo sapiens, MOLM-14) stood at 16.1 ± 0.02 nM.

Consider `Cc1ccc(C(=O)Nc2ccc(CN3CCN(C)CC3)c(C(F)(F)F)c2)cc1C#Cc1cnc(N)c2ccccc12` [Compound 15], for which the IC50 in test [1] (Homo sapiens, MOLM-14, 72 h) was not above 15 nM; in test [2] (setting [3]), not above 15 nM. Besides, the inhibition at 0.5 µM against FLT3 was found to be 100%; at Src, 97%.

For `Cc1ccc(C(=O)Nc2ccc(CN3CCN(C)CC3)c(C(F)(F)F)c2)cc1C#Cc1cncc2ncccc12` [Compound 23], the inhibition at 0.5 µM against FLT3 and against Src was 99% throughout.

Turning to `Cc1ncc(C(=O)Nc2ccc(CN3CCN(C)CC3)c(C(F)(F)F)c2)cc1C#Cc1cncc2ncccc12` [Compound 24], the IC50 came out at 3 ± 0.3 nM in test [1] (Homo sapiens, MOLM-14, 72 h); 1.8 ± 0.08 nM in test [2] (setting [3]); 0.2 ± 0.01 nM in the test with MOLM-14 cells (Homo sapiens, MOLM-14); 0.2 ± 0.009 nM in the test on MV4–11 cells (Homo sapiens, MV4-11, 72 h). The inhibition at 0.5 µM at FLT3 was determined as 100%; on Src it was 98%.

`Cc1ccc(C(=O)Nc2ccc(CN3CCN(C)CC3)c(C(F)(F)F)c2)cc1C#Cc1c(N)ncc2ccc(Cl)cc12` [Compound 8]: in the test on MV4–11 cells (Homo sapiens, MV4-11, 72 h), the IC50 is approximately 0.5 nM. Moreover, testing at 0.5 µM against FLT3 gave an inhibition of 97%.

As to `COc1ccc2c(N)ncc(C#Cc3cc(C(=O)Nc4ccc(CN5CCN(C)CC5)c(C(F)(F)F)c4)cnc3C)c2c1` [Compound 14], the inhibition at 0.5 µM on FLT3 turned out to be 98%; against Src, 99%.

For the compound `Cc1ccc(C(=O)Nc2ccc(CN3CCN(C)CC3)c(C(F)(F)F)c2)cc1C#Cc1ccc(N)nc1` [Compound 2], the inhibition at 0.5 µM on FLT3 and on Src was 99% throughout.

On to `Cc1ncc(C(=O)Nc2ccc(CN3CCN(C)CC3)c(C(F)(F)F)c2)cc1C#Cc1cnc(N)c2ccc(F)cc12` [Compound 17], for which the inhibition at 0.5 µM against FLT3 and against Src was 98% each time.

For `Cc1ncc(C(=O)Nc2ccc(CN3CCN(C)CC3)c(C(F)(F)F)c2)cc1C#Cc1c(N)ncc2ccc(Cl)cc12` [Compound 9], the IC50 is 10.4 ± 0.3 nM in test [1] (Homo sapiens, MOLM-14, 72 h); 6.9 ± 0.05 nM in test [2] (setting [3]); 2.3 ± 0.1 nM in the test with MOLM-14 cells (Homo sapiens, MOLM-14); 0.4 ± 0.04 nM in the test with MV4–11 cells; approximately 0.5 nM in the test on MV4–11 cells (Homo sapiens, MV4-11, 72 h). In addition, the inhibition at 0.5 µM against FLT3 and against Src was 98% throughout.

With `CC(C)(C)c1cc(NC(=O)Nc2ccc(-c3cn4c(n3)sc3cc(OCCN5CCOCC5)ccc34)cc2)no1` [Quizartinib, reference compound], the IC50 was 23 ± 0.5 nM in test [1] (Homo sapiens, MOLM-14, 72 h); 48.5 ± 0.6 nM in test [2] (setting [3]); 0.5 ± 0.02 nM with MOLM-14 cells (Homo sapiens, MOLM-14); 0.4 ± 0.02 nM in the test on MV4–11 cells (Homo sapiens, MV4-11, 72 h).

For `Cc1ccc(C(=O)Nc2ccc(CN3CCN(C)CC3)c(C(F)(F)F)c2)cc1C#Cc1cnc2cccnn12` [Ponatinib, reference compound], the IC50 is 52.6 ± 0.3 nM in test [1] (Homo sapiens, MOLM-14); 6.8 ± 0.03 nM in test [2] (Homo sapiens, MOLM-14, 72 h incubation, triplicates, read-out: IC50 (mean ±SD, nM) MOLM-14 (ITD, F691 L)); 0.5 ± 0.1 nM in the test with MOLM-14 cells (Homo sapiens, MOLM-14); 0.1 ± 0.001 nM with MV4–11 cells (Homo sapiens, MV4-11).

`Cc1ccc(C(=O)Nc2ccc(CN3CCN(C)CC3)c(C(F)(F)F)c2)cc1C#Cc1c(N)ncc2ccc(F)cc12` [Compound 6]: the inhibition at 0.5 µM against FLT3 worked out at 90%; on Src, 99%.

Turning to `Cc1ccc(C(=O)Nc2ccc(CN3CCN(C)CC3)c(C(F)(F)F)c2)nc1C#Cc1c(N)ncc2ccc(Cl)cc12` [Compound 11], the IC50 in test [1] (Homo sapiens, MOLM-14, 72 h) was not above 15 nM; in test [2] (setting [3]) it was not above 15 nM. The inhibition at 0.5 µM against FLT3 amounted to 43%; at Src it was 16%.

Consider `Cc1ccc(C(=O)Nc2ccc(CN3CCN(C)CC3)c(C(F)(F)F)c2)cc1C#Cc1cccnc1N` [Compound 1], for which the inhibition at 0.5 µM against FLT3 was found to be 96%; against Src it was 99%.

Regarding `Cc1ccc(C(=O)Nc2ccc(CN3CCN(C)CC3)c(C(F)(F)F)c2)cc1C#Cc1cncc2ccccc12` [Compound 22], the inhibition at 0.5 µM on FLT3 turned out to be 98%; against Src it was 100%.

In the case of `CC1(COc2ccc3c(c2)ncn3-c2ccc3cccc(N4CCC(N)CC4)c3n2)COC1` [Crenolanib, reference compound], the IC50 in test [1] (Homo sapiens, MOLM-14, 72 h) stood at 6.6 ± 0.03 nM; in test [2] (setting [3]) it was 15.6 ± 0.4 nM; in the test with MOLM-14 cells (Homo sapiens, MOLM-14), 4.5 ± 0.8 nM; in the test on MV4–11 cells (Homo sapiens, MV4-11, 72 h), 3.1 ± 0.06 nM. At FLT3, testing at 0.5 µM gave an inhibition of 99%.

`COc1ccc2cnc(N)c(C#Cc3cc(C(=O)Nc4ccc(CN5CCN(C)CC5)c(C(F)(F)F)c4)cnc3C)c2c1` [Compound 18]: the IC50 in test [1] was 11.1 ± 0.08 nM; in test [2] (72 h incubation, triplicates, read-out: IC50 (mean ±SD, nM) MOLM-14 (ITD, F691 L)) it was 1.1 ± 0.04 nM; in test [2] (Table S2, superscript g, the values are: IC50), 1.1 nM; with MOLM-14 cells, 0.2 ± 0.002 nM; with MV4–11 cells it was 0.2 ± 0.001 nM. In the test on MV4–11 cells (Table S2, superscript d, the values are: IC50), this compound showed an IC50 MV4-11 of 0.2 nM. Also, the “%FLT3 inhibition” value on FLT3 came to 97%. Further, the “%Src inhibition” value on Src came to 98%.

Regarding `Cc1ccc(C(=O)Nc2ccc(CN3CCN(C)CC3)c(C(F)(F)F)c2)cc1C#Cc1c(N)ncc2ccccc12` [Compound 4], the results for the inhibition at 0.5 µM against FLT3 and against Src were 93% and 100%, respectively.

Values taken from article PMC6413339 (EBioMedicine, 2019).
